From patent US8969335B2, “Benzonitrile derivatives as kinase inhibitors” (MERCK PATENT GmbH, priority 2011, dated 2015)

Legend:
[1] = tested on: TBK1 + IKKε (phospho-IRF3 @ Ser 386, MDA-MB-468 cells); test: TBK1 + IKKε cell assay: dose response inhibition of phospho-IRF3 @ Ser 386 in MDA-MB-468 cells; format: cell-based; details: Homo sapiens, poly(I:C) stimulation, nuclear phospho-IRF3, read-out: TBK1 + IKKε cell assay IC50
Procedure: Day 1: MDA-MB-468 cells are detached using HyQ-Tase, counted and sown into a 384-well plate with TC surface and clear bottom in a density of 10,000 cells per well in a total volume of 35 μl of complete medium. Alternatively, the cells are sown directly from frozen glass vials.
Day 2: The cells are pre-treated with inhibitor compounds for 1 h prior to poly(I:C) stimulation. After incubation for 2 h with poly(I:C), the cells are fixed in (para)formaldehyde (PFA) and permeabilised using methanol (MeOH). The cells are then blocked and incubated with an anti-pIRF3 antibody at 4° C. overnight.
Day 3: The primary antibody is washed off, an AlexaFluor488-conjugated secondary antibody is added, the cells are contrast-stained with propidium iodide, followed by image acquisition on an IMX ultra-high content reader.

IKKε = IKKε (Homo sapiens (Human), UniProt Q14164); test: IKKε kinase assay (384-well flashplate assay); format: biochemical; details: 1 nM IKKε, 10 μM ATP, 30° C., 2 hours; read-out: IKKε enzyme assay IC50
Procedure: Test for the Inhibition of IKKε
IKKε—Kinase Assay (IKKepsilon)
The kinase assay is performed as 384-well flashplate assay (for example for Topcount measurement).
1 nM IKKε, 800 nM biotinylated IκBα(19-42) peptide (Biotin-C6-C6-[…]) and 10 μM ATP (spiked with 0.3 μCi of ^33P-ATP/well) are incubated at 30° C. for 2 hours in a total volume of 50 μl (10 mM MOPS, 10 mM Mg acetate, 0.1 mM EGTA, 1 mM dithiothreitol, 0.02% of Brij35, 0.1% of BSA, 0.1% of BioStab, pH 7.5) with or without test compound. The reaction is stopped using 25 μl of 200 mM EDTA. After 30 min at room temperature, the liquid is removed, and each well is washed three times with 100 μl of 0.9% sodium chloride solution. Non-specific reaction is determined in the presence of 3 μM MSC2119074 (BX-795). The radioactivity is measured using a Topcount (PerkinElmer). The results (for example IC50 values) are calculated using program tools provided by the IT Department (for example AssayExplorer, Symyx).

[2] = biological target: TANK binding kinase (TBK1) (Homo sapiens (Human), UniProt Q9UHD2); test: TBK1 enzyme assay (384-well flashplate kinase assay); format: biochemical; details: 0.6 nM TBK1, 10 μM ATP, 30° C., 120 min
Sequence of TANK binding kinase (TBK1) (Q9UHD2 whole entry): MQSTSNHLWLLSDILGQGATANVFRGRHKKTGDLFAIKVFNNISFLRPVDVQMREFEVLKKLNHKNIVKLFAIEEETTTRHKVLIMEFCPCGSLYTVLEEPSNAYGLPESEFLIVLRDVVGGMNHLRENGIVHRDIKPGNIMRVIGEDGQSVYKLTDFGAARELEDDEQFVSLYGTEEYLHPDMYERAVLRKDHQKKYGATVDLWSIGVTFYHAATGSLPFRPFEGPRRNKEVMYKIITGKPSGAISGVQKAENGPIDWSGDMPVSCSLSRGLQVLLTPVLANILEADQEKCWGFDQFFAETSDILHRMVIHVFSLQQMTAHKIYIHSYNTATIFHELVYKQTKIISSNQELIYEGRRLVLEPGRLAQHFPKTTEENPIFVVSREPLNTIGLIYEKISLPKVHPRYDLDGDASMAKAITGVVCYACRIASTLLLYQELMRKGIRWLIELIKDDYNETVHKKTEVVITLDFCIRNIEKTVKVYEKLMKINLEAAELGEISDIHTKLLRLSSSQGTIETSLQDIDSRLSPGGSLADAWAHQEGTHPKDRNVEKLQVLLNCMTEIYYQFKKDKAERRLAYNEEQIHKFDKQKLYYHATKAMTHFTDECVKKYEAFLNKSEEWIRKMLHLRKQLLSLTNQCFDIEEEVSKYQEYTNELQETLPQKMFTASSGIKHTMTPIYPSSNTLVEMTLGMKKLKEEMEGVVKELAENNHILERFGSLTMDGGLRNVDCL
Procedure: Test for the Inhibition of TBK1
0.6 nM TANK binding kinase (TBK1), 800 nM biotinylated MELK-derived peptide (Biotin-Ah-Ah-[sequence]) and 10 μM ATP (spiked with 0.25 μCi of ^33P-ATP/well) are incubated at 30° C. for 120 min in a total volume of 50 μl (10 mM MOPS, 10 mM Mg acetate, 0.1 mM EGTA, 1 mM DTT, 0.02% of Brij35, 0.1% of BSA, pH 7.5) with or without test compound. The reaction is stopped with 25 μl of 200 mM EDTA. After 30 min at room temperature, the liquid is removed, and each well is washed three times with 100 μl of 0.9% sodium chloride solution. Non-specific reaction is measured in the presence of 100 nM staurosporine. The radioactivity is measured in a Topcount (PerkinElmer).

Sequence of IKKε (Q14164 whole entry): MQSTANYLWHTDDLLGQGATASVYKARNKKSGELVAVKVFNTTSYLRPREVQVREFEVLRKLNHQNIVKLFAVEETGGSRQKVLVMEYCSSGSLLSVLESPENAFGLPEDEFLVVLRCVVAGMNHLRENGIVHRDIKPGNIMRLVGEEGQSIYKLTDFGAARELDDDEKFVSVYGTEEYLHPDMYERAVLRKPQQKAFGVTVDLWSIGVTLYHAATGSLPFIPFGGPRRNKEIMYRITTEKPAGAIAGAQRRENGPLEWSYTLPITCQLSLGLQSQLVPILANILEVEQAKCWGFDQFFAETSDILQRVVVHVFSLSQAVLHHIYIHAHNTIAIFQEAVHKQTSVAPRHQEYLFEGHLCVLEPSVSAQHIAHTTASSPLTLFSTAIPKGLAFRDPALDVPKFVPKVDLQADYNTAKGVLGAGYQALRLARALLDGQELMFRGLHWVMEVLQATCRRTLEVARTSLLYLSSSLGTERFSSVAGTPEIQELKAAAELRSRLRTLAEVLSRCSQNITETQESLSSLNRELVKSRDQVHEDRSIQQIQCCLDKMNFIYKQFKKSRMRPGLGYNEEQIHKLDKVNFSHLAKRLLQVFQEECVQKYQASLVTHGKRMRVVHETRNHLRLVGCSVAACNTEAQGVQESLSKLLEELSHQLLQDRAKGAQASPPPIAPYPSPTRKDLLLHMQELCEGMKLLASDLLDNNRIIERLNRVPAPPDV

SMILES | IC50 [1] | IC50 (IKKε) | IC50 [2]
COc1nc(Nc2nccc(-c3ccc(OC4CCOCC4)c(C#N)c3)n2)ccc1C1=CCNCC1 [Compound A76, 5-[2-(2-methoxy-1′,2′,3′,6′-tetrahydro[3,4′]bipyridinyl-6-ylamino)pyrimidin-4-yl]-2-(tetrahydropyran-4-yloxy)benzonitrile] | 6100 nM | 21 nM | 27 nM
N#Cc1cc(-c2ccnc(Nc3cnn(CCO)c3)n2)ccc1OCC1CCC1 [Compound A94, 2-cyclobutylmethoxy-5-{2-[1-(2-hydroxyethyl)-1H-pyrazol-4-ylamino]pyrimidin-4-yl}benzonitrile] | 980 nM | 18 nM | 14 nM
N#Cc1cc(-c2ccnc(Nc3ccc(N4CCOCC4)cn3)c2)ccc1OCC1CC1 [Compound A108, 2-cyclopropylmethoxy-5-[2-(5-morpholin-4-ylpyridin-2-ylamino)pyridin-4-yl]benzonitrile] | 1200 nM | 45 nM | 23 nM
N#Cc1cc(-c2ccnc(Nc3cc(CN)ccn3)c2)ccc1OC1CCOCC1 [Compound A77, 5-[2-(4-aminomethyl-pyridin-2-ylamino)pyridin-4-yl]-2-(tetrahydropyran-4-yloxy)benzonitrile] | 1400 nM | 12 nM | 30 nM
N#Cc1cc(-c2ccnc(Nc3cnn(CCO)c3)n2)ccc1OC1CCOCC1 [Compound A75, 5-{2-[1-(2-hydroxyethyl)-1H-pyrazol-4-ylamino]pyrimidin-4-yl}-2-(tetrahydropyran-4-yloxy)benzonitrile] | 500 nM | 4 nM | 3 nM
N#Cc1cc(-c2ccnc(Nc3ccc(CO)cn3)c2)ccc1OCC1CC1 [Compound A106, 2-cyclopropylmethoxy-5-[2-(5-hydroxymethylpyridin-2-ylamino)pyridin-4-yl]benzonitrile] | 4100 nM | 46 nM | 41 nM
CN1CCC(n2cc(Nc3cc(-c4ccc(OC5CCOCC5)c(C#N)c4)ccn3)cn2)CC1 [Compound A2, 5-{2-[1-(1-Methylpiperidin-4-yl)-1H-pyrazol-4-yl-amino]pyridin-4-yl}-2-(tetrahydropyran-4-yloxy)benzonitrile] | 960 nM | 20 nM | 83 nM
N#Cc1cc(-c2ccnc(Nc3ccc(C4CCNCC4)nn3)c2)ccc1OC1CCOCC1 [Compound A71, 5-[2-(6-piperidin-4-ylpyridazin-3-ylamino)pyridin-4-yl]-2-(tetrahydropyran-4-yloxy)benzonitrile] | 2400 nM | 6 nM | 21 nM
N#Cc1cc(-c2ccnc(Nc3cnn([C@H]4CC[C@H](O)CC4)c3)n2)ccc1OC1CCOCC1 [Compound A101, 5-{2-[1-(4-hydroxycyclohexyl)-1H-pyrazol-4-ylamino]pyrimidin-4-yl}-2-(tetrahydropyran-4-yloxy)benzonitrile] | 440 nM | 5 nM | 3 nM
N#Cc1cc(-c2ccnc(Nc3cnn(CCC4CCNCC4)c3)c2)ccc1OC1CCOCC1 [Compound A21, 5-{2-[1-(2-Piperidin-4-ylethyl)-1H-pyrazol-4-ylamino]pyridin-4-yl}-2-(tetrahydropyran-4-yloxy)benzonitrile] | 5300 nM | 37 nM | 70 nM
CC(C)(C)c1cc(Nc2cc(-c3ccc(OC4CCOCC4)c(C#N)c3)ccn2)n[nH]1 [Compound A10, 5-[2-(5-tert-Butyl-1H-pyrazol-3-ylamino)pyridin-4-yl]-2-(tetrahydropyran-4-yloxy)benzonitrile] | 1200 nM | 43 nM | 21 nM
N#Cc1cc(-c2ccnc(Nc3cccc(C4CCNCC4)n3)c2)ccc1OC1CCOCC1 [Compound A91, 5-[2-(1′,2′,3′,4′,5′,6′-hexahydro-[2,4′]bipyridinyl-6-ylamino)pyridin-4-yl]-2-(tetrahydropyran-4-yloxy)benzonitrile] | 2300 nM | 8 nM | 32 nM
N#Cc1cc(-c2ccnc(Nc3ncc(C4CCNCC4)cn3)c2)ccc1OC1CCOCC1 [Compound A66, 5-[2-(5-piperidin-4-ylpyrimidin-2-ylamino)pyridin-4-yl]-2-(tetrahydropyran-4-yloxy)benzonitrile] | 4900 nM | 82 nM | 100 nM
Cc1cc(Nc2cc(-c3ccc(OC4CCOCC4)c(C#N)c3)ccn2)no1 [Compound A4, 5-[2-(5-Methylisoxazol-3-ylamino)pyridin-4-yl]-2-(tetrahydropyran-4-yloxy)benzonitrile] | 6600 nM | 38 nM | 34 nM
N#Cc1cc(-c2ccnc(Nc3cc(C4CC4)n[nH]3)c2)ccc1OC1CCOCC1 [Compound A12, 5-[2-(5-Cyclopropyl-2H-pyrazol-3-ylamino)pyridin-4-yl]-2-(tetrahydropyran-4-yloxy)benzonitrile] | 1300 nM | 25 nM | 30 nM
COCCCn1cc(Nc2cc(-c3ccc(OC4CCOCC4)c(C#N)c3)ccn2)cn1 [Compound A23, 5-{2-[1-(3-Methoxypropyl)-1H-pyrazol-4-ylamino]pyridin-4-yl}-2-(tetrahydropyran-4-yloxy)benzonitrile] | 7800 nM | 160 nM | 120 nM
COCCn1cc(Nc2nccc(-c3ccc(OCC4CCC4)c(C#N)c3)n2)cn1 [Compound A103, 2-cyclobutylmethoxy-5-{2-[1-(2-methoxyethyl)-1H-pyrazol-4-ylamino]pyrimidin-4-yl}benzonitrile] | 890 nM | 8 nM | 7 nM
Cn1ccc(Nc2nccc(-c3ccc(OC4CCOCC4)c(C#N)c3)n2)n1 [Compound A33, 5-[2-(1-Methyl-1H-pyrazol-3-ylamino)pyrimidin-4-yl]-2-(tetrahydropyran-4-yloxy)benzonitrile] | 5000 nM | 58 nM | 130 nM
CN1CCC(c2ccnc(Nc3cc(-c4ccc(OC5CCOCC5)c(C#N)c4)ccn3)c2)CC1 [Compound A78, 5-[2-(1′-methyl-1′,2′,3′,4′,5′,6′-hexahydro-[4,4′]bipyridinyl-2-ylamino)pyridin-4-yl]-2-(tetrahydropyran-4-yloxy)benzonitrile] | 2100 nM | 6 nM | 5 nM
N#Cc1cc(-c2ccnc(Nc3ccc(N4CCOCC4)nn3)c2)ccc1OC1CCOCC1 [Compound A90, 5-[2-(6-morpholin-4-ylpyridazin-3-ylamino)pyridin-4-yl]-2-(tetrahydropyran-4-yloxy)benzonitrile] | 1300 nM | 98 nM | 88 nM
N#Cc1cc(-c2ccnc(Nc3cnn([C@H]4CC[C@@H](O)CC4)c3)n2)ccc1OCC1CCC1 [Compound A97, 2-cyclobutylmethoxy-5-{2-[1-(4-hydroxycyclohexyl)-1H-pyrazol-4-ylamino]-pyrimidin-4-yl}benzonitrile] | 2100 nM | 39 nM | 11 nM
N#Cc1ccc(Nc2cc(-c3ccc(OC4CCOCC4)c(C#N)c3)ccn2)nc1 [Compound A11, 6-{4-[3-Cyano-4-(tetrahydropyran-4-yloxy)phenyl]pyridin-2-ylamino}nicotinonitrile] | 5200 nM | 240 nM | 250 nM
N#Cc1cc(-c2ccnc(Nc3cnn(CC(F)F)c3)c2)ccc1OC1CCOCC1 [Compound A20, 5-{2-[1-(2,2-Difluoroethyl)-1H-pyrazol-4-ylamino]pyridin-4-yl}-2-(tetrahydropyran-4-yloxy)benzonitrile] | 4800 nM | 51 nM | 55 nM
COCCn1cc(Nc2nccc(-c3ccc(OC4CCOCC4)c(C#N)c3)n2)cn1 [Compound A35, 5-{2-[1-(2-Methoxyethyl)-1H-pyrazol-4-ylamino]pyrimidin-4-yl}-2-(tetrahydropyran-4-yloxy)benzonitrile] | 670 nM | 18 nM | 6 nM
N#Cc1cc(-c2ccnc(Nc3cnn(C[C@H]4C[C@@H]4CO)c3)n2)ccc1OC1CCOCC1 [Compound A67, 5-{2-[1-((1S,2S)-2-hydroxymethylcyclopropylmethyl)-1H-pyrazol-4-ylamino]pyrimidin-4-yl}-2-(tetrahydropyran-4-yloxy)benzonitrile] | 420 nM | 4 nM | 6 nM
N#Cc1cc(-c2ccnc(Nc3cnn(CCC4CCN(C(=O)CO)CC4)c3)c2)ccc1OC1CCOCC1 [Compound A29, 5-[2-(1-{2-[1-(2-Hydroxyacetyl)piperidin-4-yl]ethyl}-1H-pyrazol-4-ylamino)pyridin-4-yl]-2-(tetrahydropyran-4-yloxy)benzonitrile] | 6700 nM | 88 nM | 120 nM
N#Cc1cc(-c2ccnc(Nc3cnn([C@H]4CC[C@@H](O)CC4)c3)n2)ccc1OC1CCOCC1 [Compound A73, 5-{2-[1-(4-hydroxycyclohexyl)-1H-pyrazol-4-ylamino]pyrimidin-4-yl}-2-(tetrahydropyran-4-yloxy)benzonitrile] | 270 nM | 10 nM | 8 nM
